US11955208B2, “Computational systems and methods for improving the accuracy of drug toxicity predictions” (Cornell University, priority 2016, dated 2024)

Legend:
breast cancer patients = settings: recent clinical trials; cited from earlier work
DRD2L [1] = target: T1, DRD2L (Homo sapiens, UniProt P14416)
[2] = tested on: nuclear hormone receptors, the kinome, or other drug targets of FDA-approved cancer therapies
[3] = tested on: short and long isoforms of DRD2; settings: arrestin recruitment
Protocol: (§1) To test the target prediction, in vitro profiling of GPCR activity using a hetereologous reporter assay for arrestin recruitment, a hallmark of GPCR activation was performed.

[4] = tested on: D2-like (DRD2/3/4) subfamily of dopamine receptors; settings: arrestin recruitment
Protocol: as §1

other GPCRs = assay: GPCR profiling, heterologous reporter assay for arrestin recruitment; format: cell-based; settings: under the evaluated conditions
Protocol: as §1

[5] = tested on: D1-like (DRD1/5) subfamily of dopamine receptors; assay: as above; format: cell-based
Protocol: as §1

DRD2L [6] = target: T1, DRD2L; assay: antagonism of arrestin recruitment to DRD2L, Gaddam/Schild EC50 shift analysis; format: cell-based; set-up: expressed in transfected cells; settings: dopamine completely reversed dose-dependent antagonism of up to 100 uM ONC201
Protocol: as §1

[7] = in vivo; cited from earlier work

T1 sequence (P14416 whole entry): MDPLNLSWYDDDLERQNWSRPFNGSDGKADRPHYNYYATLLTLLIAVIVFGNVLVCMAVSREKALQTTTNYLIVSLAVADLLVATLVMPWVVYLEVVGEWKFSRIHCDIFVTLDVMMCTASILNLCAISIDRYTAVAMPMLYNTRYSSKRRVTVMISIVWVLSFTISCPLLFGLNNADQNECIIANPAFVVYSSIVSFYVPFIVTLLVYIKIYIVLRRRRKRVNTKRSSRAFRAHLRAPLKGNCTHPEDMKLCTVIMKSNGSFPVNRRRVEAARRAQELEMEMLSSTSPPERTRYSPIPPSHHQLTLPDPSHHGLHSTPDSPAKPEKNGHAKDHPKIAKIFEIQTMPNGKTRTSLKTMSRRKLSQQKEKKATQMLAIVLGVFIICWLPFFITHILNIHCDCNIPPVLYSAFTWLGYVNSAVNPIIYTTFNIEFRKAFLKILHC

**Q.** For C=C1C[C@@H]2CC[C@@]34C[C@H]5O[C@H]6[C@@H](O3)[C@H]3O[C@H](CC[C@@H]3O[C@H]6[C@H]5O4)CC(=O)C[C@@H]3[C@@H](OC)[C@@H](C[C@H](O)CN)O[C@H]3C[C@H]3O[C@@H](CC[C@@H]1O2)C[C@@H](C)C3=C [Eribulin], which “breast cancer patients showing any detectable response after treatment” value (breast cancer patients) is on record?
**A.** < 50%

**Q.** With Cc1ccccc1CN1C(=O)C2=C(CCN(Cc3ccccc3)C2)N2CCN=C12 [ONC201] as the compound, how does the “cAMP modulation in response to compound” value (DRD2L [1]) read?
**A.** Confirmatory results

**Q.** And the “interactions with nuclear hormone receptors, kinome, other cancer drug targets” value [2]?
**A.** no significant interactions

**Q.** And the “antagonism of DRD2 short and long isoforms” value [3]?
**A.** antagonized

**Q.** What about the “antagonism of D2-like dopamine receptors” value [4] of the same compound?
**A.** selectively antagonizes

**Q.** What about the “antagonism of other GPCRs” value (other GPCRs) of the same compound?
**A.** no observed antagonism

**Q.** What about the “antagonism of D1-like dopamine receptors” value [5] of the same compound?
**A.** not D1-like

**Q.** And the “mode of antagonism of DRD2L” value (DRD2L [6])?
**A.** direct, competitive antagonism

**Q.** Which associated adverse event [7] does the source give for CC(C)C[C@H](NC(=O)[C@H](Cc1ccccc1)NC(=O)c1cnccn1)B(O)O [bortezomib] here?
**A.** peripheral neuropathy

**Q.** Which associated adverse event [7] does the source give for CC(=O)O[C@@]12CO[C@@H]1C[C@H](O)[C@@]1(C)C(=O)[C@H](O)C3=C(C)[C@@H](OC(=O)[C@H](O)[C@@H](NC(=O)OC(C)(C)C)c4ccccc4)C[C@@](O)([C@@H](OC(=O)c4ccccc4)[C@H]21)C3(C)C [docetaxel] here?
**A.** neutropenia

**Q.** For CN(CCOc1ccc(CC2SC(=O)NC2=O)cc1)c1ccccn1 (centres unmarked) [rosiglitazone], which associated adverse event [7] is on record?
**A.** elevated risk of heart attack
